The text below walks through data of patent US20120283212A1, “USE OF POLYSACCHARIDES FOR TREATING STRESS AND ANXIETY” (ROQUETTE FRERES, priority 2009, published 2012).

Experiment [1] deals with male Wistar rat. In words: Functional observational battery (FOB). The class given is in vivo. As to conditions: diazepam 3 mg/kg on D14; for Spontaneous activity on D14 (score): score 0=excited, 1 to 3 moderate rapid movements, 4 no activity; for Finger approach reaction on D14 (score): score 0=none, 1 to 3=slight to strong escape; for Respiratory rate on D14 (score): score 0=slow, 1=normal, 2 rapid. How it is done: The effects of an oligosaccharide administered orally at doses of 0.7 and 1.4 g/kg for 14 days were evaluated in a functional observational battery (FOB) in the male Wistar rat. The objective of this FOB test is to evaluate the change in behavioral, neurological and physiological parameters of the rats according to the products tested.
For this, a polysaccharide (PS1) as defined in table 1 is administered by esophageal gavage daily at these two doses for 14 days (6 rats per group). Similarly, a vehicle control consisting of spring water is administered under these conditions. The reference positive control is diazepam: from D0 to D13, methylcellulose is administered to the rats and on D14, diazepam at 3 mg/kg of body weight is also administered.
The animals are subjected to the functional observational battery before treatment on D0 and at the end of the study on D14.
Each test comprises three observational phases: • a direct observational phase during which the animal is not disturbed, • an active observational phase during which the animal is handled, • a phase devoted to evaluating the reactions of the animals to reactivity tests.
Several variables are recorded: • Behavioral effects: spontaneous locomotor activity, locomotor behavior disorders, emotionality (vocalization frequency), touch escape reaction, irritability, provoked aggressiveness and freezing behaviors, sleeping/awakening, urination and defecation, sensorimotor responses (visual placing, toe pinch and sound stimulus reaction). • Neurological effects: pupillary response, palpebral reflex, pelvic elevation, tail position, limb and abdominal muscle tone, righting test, grip strength test, suspension test, tremors and piloerection. • Physiological effects: salivation, lacrimation, diarrhea, rectal temperature, heart and respiratory rate.
Definition of the scores: • Spontaneous activity: 0=excited; 1 to 3 moderate rapid movements; 4: no activity. • Finger approach reaction: 0=none; 1 to 3=slight to strong escape. • Respiratory rate: 0=slow; 1=normal; 2 rapid. • Sound stimulus startle reaction: 0=slight; 1=<1 cm; 2=>1 cm.

In experiment [2] the test system is male Wistar rat. The experiment in a line: Conditioned Defensive Burying (CDB) test. The class given is in vivo. As to conditions: the greater the stress, the higher the score. How it is done:
The anti-stress effects of a PS1 polysaccharide, administered orally for 14 days, were evaluated in the male Wistar rat in the Conditioned Defensive Burying (CDB) test.
For this, the PS1 is administered by esophageal gavage daily at the doses of 0.7, 1.4 and 2.8 g/kg of body weight for 14 days (8 rats per group). Similarly, a vehicle control represented by spring water is administered under the same conditions. The reference positive control is diazepam: from D0 to D13, methylcellulose is administered to the rats, and on D14, diazepam at 1 mg/kg or 3 mg/kg of body weight is administered to the rats. The PS1 and diazepam mixture is also studied: the PS1 is administered for 14 days alone, and on D14, diazepam at 1 mg/kg is added to the esophageal gavage of the PS1.
On D14, the rats are subjected to the Conditioned Defensive Burying (CDB) test. For this, an electric probe is inserted into a cage before the start of the test. Each rat is placed in the experimental device on the opposite side to the probe and a single electric shock, of weak intensity (2 mA), is delivered to the animal at the moment it places its front paw on the probe for the first time. Following the shock, the behavior of the rat is recorded for five minutes; an overall stress score is attributed for each rat. The greater the stress, the higher the score.

SMILES strings stand for the structures.

As to `CN1C(=O)CN=C(c2ccccc2)c2cc(Cl)ccc21` [Diazepam, diazepam], in the experiment with male Wistar rat [1], the “Heart rate on D14, in comparison with the vehicle” value was “significantly slower”; the “Spontaneous activity on D14 (score)” value was 2.16; the “Finger approach reaction on D14 (score)” value is reported as 0.18; the “Respiratory rate on D14 (score)” value came out at 1.14. Moreover, in the experiment on male Wistar rat [1] (listed as reference), the “Spontaneous activity on D14 (score)” value is on record as “tend to be significantly less active”, the “Finger approach reaction on D14 (score)” value is reported as “significantly less reactive to a finger approach” and the “Respiratory rate on D14 (score)” value was “significantly slower”. In the experiment on male Wistar rat [1] (score 0=slight, 1=<1 cm, 2=>1 cm), the “Sound stimulus startle reaction on D14 (score)” value is 0.00. Further, the “Overall stress score (Mean ± SEM)” value in the experiment with male Wistar rat [2] (diazepam 1 mg/kg on D14) is recorded as 92.57 ± 17.99. The “Overall stress score (Mean ± SEM)” value in the experiment with male Wistar rat [2] (diazepam 3 mg/kg on D14) was 65.25 ± 7.15. Further, in the experiment with male Wistar rat [2] (diazepam 3 mg/kg on D14, listed as diazepam), the “Overall stress score (Mean ± SEM)” value is recorded as “significantly lower than that of the vehicle group”.
